Publication PMC12171764 (Computational and Structural Biotechnology Journal, 2025)

Legend:
PhGal4E_1 = molecular target: T1, PhGal4E_1 (Pyrococcus horikoshii, UniProt O73960); assay: X-ray crystal structure, […] Å, crystal soaking; assay type: binding; settings: soaked 1-3 min with 10 mM GDP-L-Fuc; active site, NAD+ bound
T1 sequence (O73960 1-318): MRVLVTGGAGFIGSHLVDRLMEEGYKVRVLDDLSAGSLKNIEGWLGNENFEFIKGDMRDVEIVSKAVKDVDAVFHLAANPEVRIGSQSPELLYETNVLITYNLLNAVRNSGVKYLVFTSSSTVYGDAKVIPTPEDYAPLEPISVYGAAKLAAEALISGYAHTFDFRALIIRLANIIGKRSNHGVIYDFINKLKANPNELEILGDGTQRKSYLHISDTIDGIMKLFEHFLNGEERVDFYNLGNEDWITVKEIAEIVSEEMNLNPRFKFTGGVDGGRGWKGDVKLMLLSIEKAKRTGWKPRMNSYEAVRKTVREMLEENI

[1] = molecular target: PhGal4E_1 variant Y145F (Pyrococcus horikoshii); assay: crystal structure

With `C[C@@H]1O[C@H](OP(=O)(O)OP(=O)(O)OC[C@H]2O[C@@H](n3cnc4c(=O)[nH]c(N)nc43)[C@H](O)[C@@H]2O)[C@@H](O)[C@H](O)[C@@H]1O` [GDP-L-Fuc] the “X-ray crystal structure, 2.4 Å, crystal soaking” value (PhGal4E_1) was “NAD^+ cofactor and GDP-L-Fuc bound in the active site of the WT (PDB ID: 8RDH”.

PhGal4E_1 variant Y145F (enzyme) showed a stoichiometry N [1] of 2.
